Experiments:
Assay in all cases: relative viability (nuclei count vs DMSO), 5 days (fraction); higher = more cells survive
[1] = compound: CCOC1=CC=CC=C1N=NC2=C(NN(C2=O)C3=NC(=CS3)C4=CC=CC=C4)C [BAM7] + COc1cccc2cc(-c3nc([C@H]4CC[C@H](C(=O)O)CC4)n4ncnc(N)c34)[nH]c12 [OSI-027] (partner 0.5 µM)
In short: (§1)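 Medians of duplicate plates are given as relative viability. That measure is the nuclei count in treated wells divided by the count in vehicle wells. Counts were taken on 4× images of lung cancer cell lines in 1536-well plates, 5 days after pin-tool dosing the day after seeding with one drug alone or a fixed anchor-drug dose plus five library-drug doses (not always all listed) in √10 steps.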

[2] = compound: CCOC1=CC=CC=C1N=NC2=C(NN(C2=O)C3=NC(=CS3)C4=CC=CC=C4)C [BAM7] + Nc1ncn([C@H]2C[C@H](O)[C@@H](CO)O2)c(=O)n1 [Decitabine] (partner 2 µM)
In short: as §1

[3] = compound: CCn1c(-c2nonc2N)nc2c(C#CC(C)(C)O)ncc(OC[C@H]3CCCNC3)c21 + COc1cccc2cc(-c3nc([C@H]4CC[C@H](C(=O)O)CC4)n4ncnc(N)c34)[nH]c12 [OSI-027] (partner 0.5 µM)
In short: as §1

[4] = compound: CCOC1=CC=CC=C1N=NC2=C(NN(C2=O)C3=NC(=CS3)C4=CC=CC=C4)C [BAM7] + C[C@@H](Oc1cc(-c2cnn(C3CCNCC3)c2)cnc1N)c1c(Cl)ccc(F)c1Cl [Crizotinib] (partner 1 µM)
In short: as §1

Cell Line	relative viability ([1]; first compound 0.5 µM)	relative viability ([1]; first compound 5 µM)	relative viability ([1]; first compound 15.81 µM)	relative viability ([1]; first compound 50 µM)	relative viability ([2]; first compound 0.5 µM)	relative viability ([2]; first compound 5 µM)	relative viability ([2]; first compound 15.81 µM)	relative viability ([2]; first compound 50 µM)	relative viability ([3]; first compound 0.01 µM)	relative viability ([3]; first compound 0.03162 µM)	relative viability ([3]; first compound 0.1 µM)	relative viability ([3]; first compound 0.3162 µM)	relative viability ([3]; first compound 1 µM)	relative viability ([4]; first compound 0.5 µM)	relative viability ([4]; first compound 5 µM)	relative viability ([4]; first compound 15.81 µM)	relative viability ([4]; first compound 50 µM)
NCI-H1666	0.899	0.786	0.875	0.929	0.691	0.775	0.718	0.677	0.776	0.777	0.835	0.693	0.722	1.07	1.02	1.03	0.967
NCI-H2085	0.733	0.571	0.52	0.678	0.558	0.549	0.47	0.604	0.84	0.895	0.806	0.72	0.656	0.829	0.956	0.75	0.859
NCI-H1734	0.606	0.657	0.602	0.647	0.515	0.519	0.551	0.489	0.574	0.632	0.538	0.478	0.382	0.868	0.634	0.556	0.685
NCI-H2126	0.662	0.733	0.736	0.641	0.55	0.548	0.509	0.617	0.749	0.69	0.675	0.624	0.677	0.969	0.88	0.832	0.87
EMC-BAC-2	0.378	0.384	0.355	0.461	0.973	1.05	1.01	1.12	0.341	0.379	0.354	0.369	0.336	0.849	0.852	0.74	0.857
NCI-H1993	0.537	0.538	0.553	0.568	0.582	0.633	0.498	0.551	0.579	0.537	0.525	0.546	0.549	0.751	0.843	0.771	0.826
NCI-H520	0.305	0.263	0.293	0.356	0.54	0.478	0.484	0.525	0.221	0.266	0.208	0.183	0.173	0.705	0.747	0.856	0.684
NCI-H647	0.613	0.622	0.549	0.68	0.404	0.372	0.436	0.438	0.579	0.652	0.615	0.419	0.687	0.758	1.25	1.14	1.08
NCI-H1792	0.694	0.71	0.553	0.624	0.557	0.458	0.48	0.516	0.739		0.696	0.715	0.842	0.984	1.06	1.06	0.906
SK-LU-1	0.33	0.362	0.345	0.343	0.626	0.629	0.693	0.697	0.387	0.365	0.318	0.29	0.343	0.785	1.05	0.903	0.866
ChaGo-K-1	0.444	0.481	0.52	0.525	0.508	0.515	0.512	0.536	0.556	0.561	0.504	0.518	0.6	1.16	1.05	1.12	1.15
NCI-H1650	0.542	0.512	0.498	0.73	0.39	0.409	0.431	0.38	0.641	0.625	0.508	0.421	0.359	0.882	1.07	0.939	0.848
NCI-H2009	0.68	0.758	0.581	0.689	0.369	0.39	0.351	0.418	0.577	0.658	0.578	0.569	0.584	1.12	1.05	0.973	0.987
LOU-NH91	0.717	0.729	0.729	0.801	0.815	0.859	0.783	0.799	0.718	0.694	0.706	0.625	0.594	0.722	0.801	0.719	0.705
NCI-H2405	0.623	0.686	0.608	0.683	0.765	0.804	0.757	0.73	0.646	0.647	0.597	0.612	0.612	0.896	0.965	0.796	0.805
LCLC-97TM1	0.699	0.469	0.505	0.677	0.252	0.269		0.24	0.49	0.502	0.484	0.515	0.439	0.305	0.386	0.245	0.332
NCI-H596	0.686	0.576	0.593	0.725	0.879	0.984	0.908	1.09	0.618	0.789	0.663	0.668	0.645	0.97	1.03	0.913	0.978
NCI-H727	0.591	0.509	0.523	0.738	0.894	0.954	0.89	0.808	0.617	0.58	0.535	0.551	0.528	0.843	0.799	0.714	0.675
